Reference: patent US4877870A, “Process for producing 10-hydroxyanthracyclines” (Kirin Beer Kabushiki Kaisha, priority 1986, dated 1989)

Conditions: ICR mice, intravenous injection

With `CC[C@@]1(O)C[C@H](O[C@H]2C[C@H](N3CCOCC3)[C@H](O)[C@H](C)O2)c2c(O)c3c(c(O)c2[C@H]1O)C(=O)c1cccc(O)c1C3=O` [M-R20X2, 3'-deamino-3'-(4-morpholinyl)-13-deoxo-10-hydroxycarminomycin] the LD50 was 3.55 mg/kg.
